According to patent US20130165475A1, “DEUTERIUM-ENRICHED HETEROCYCLIC COMPOUNDS AS KINASE INHIBITORS” (ASCEPION PHARMACEUTICALS, INC., priority 2010, published 2013):
Where a name gives a salt, the structure may show the parent alone.

Tests used:
PDGFRβ = biological target: T1, PDGFRβ (Homo sapiens, UniProt P09619); test: PDGFRβ cell-based assay (ELISA, phosphor-/total PDGFRβ in transfected CHO cells); conditions: compound at 100 nM; CHO cells transfected with full length PDGFRβ; FBS stimulation; read-out: % PDGFRβ kinase activity remains
T1 construct: expressed in transfected cells; host or cells: CHO cells
T1 sequence (P09619 33-1106): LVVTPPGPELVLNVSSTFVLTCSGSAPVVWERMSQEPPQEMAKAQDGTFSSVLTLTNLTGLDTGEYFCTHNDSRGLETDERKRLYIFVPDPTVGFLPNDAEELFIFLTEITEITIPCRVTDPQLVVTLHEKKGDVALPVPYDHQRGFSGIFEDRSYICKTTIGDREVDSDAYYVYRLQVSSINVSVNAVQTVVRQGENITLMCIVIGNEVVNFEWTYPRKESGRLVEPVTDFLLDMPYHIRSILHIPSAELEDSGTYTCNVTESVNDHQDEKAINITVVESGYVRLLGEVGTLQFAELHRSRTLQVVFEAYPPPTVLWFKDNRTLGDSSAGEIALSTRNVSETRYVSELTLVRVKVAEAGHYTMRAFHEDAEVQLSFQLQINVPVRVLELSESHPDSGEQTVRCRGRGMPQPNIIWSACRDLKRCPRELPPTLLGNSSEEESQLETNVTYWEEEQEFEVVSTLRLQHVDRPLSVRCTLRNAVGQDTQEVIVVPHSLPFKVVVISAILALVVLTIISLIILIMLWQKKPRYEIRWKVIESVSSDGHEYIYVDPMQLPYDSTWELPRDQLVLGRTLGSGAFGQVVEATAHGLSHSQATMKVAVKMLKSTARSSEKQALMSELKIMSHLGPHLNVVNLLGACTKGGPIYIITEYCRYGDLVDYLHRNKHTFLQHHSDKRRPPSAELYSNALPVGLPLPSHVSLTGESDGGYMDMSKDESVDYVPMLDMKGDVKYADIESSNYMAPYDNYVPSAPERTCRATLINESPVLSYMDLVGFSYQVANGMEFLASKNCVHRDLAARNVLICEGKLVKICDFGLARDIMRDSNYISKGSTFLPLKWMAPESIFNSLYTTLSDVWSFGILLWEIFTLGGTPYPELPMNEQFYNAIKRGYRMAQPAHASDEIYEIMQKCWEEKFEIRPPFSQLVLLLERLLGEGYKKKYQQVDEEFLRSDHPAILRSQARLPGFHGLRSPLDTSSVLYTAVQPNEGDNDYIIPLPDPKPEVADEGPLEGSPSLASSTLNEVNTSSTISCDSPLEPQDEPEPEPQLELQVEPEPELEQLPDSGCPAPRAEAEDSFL
From the text: A standard cell-based assay for PDGFRβ kinase activity can be used to test or screen the compounds of this invention and to identify PDGFRβ antagonists. In this example, ELISA kits (R&D Systems, Inc., Minneapolis, Minn. 55413, USA) were used.
(§1) The activity of PDGFRβ in cells depended on its autophosphorylation level by various factors including growth factors. In order to induce the cell to produce PDGFRβ, full length of PDGFRβ sequence was cloned into PC-DNA3.1 vector, the plasmid was then transfected into CHO cells. After 48 hours, the expression of PDGFRβ in transfected CHO cells was confirmed by regular western blotting.
A compound to be tested was first dissolved in DMSO to a concentration of 10 mM and stored at −20° C. One day before the screening, CHO cells transfected with full length PDGFRβ plasmid were grown in DMEM medium without the presence of serum. On the day of screening procedure, the compounds with various concentration in DMSO (from 0.5 nM to 500 nM) were added into DMEM medium, two hours later, 20% of FBS (Fetal Bovine Serum) was added into the medium to stimulate the production of phosphor-PDGFRβ. Cell lysate from approximately 5×10^5 transfected CHO cells were reacted with anti-phosphor PDGFRβ or anti-total PDGFRβ antibody in 96 well plates, in the presence of detection antibody. The phosphor-PDGFRβ or total PDGFRβ were detected with Streptavidin-HRP (R&D Systems), followed by chemiluminescent detection. The level of PDGFRβ kinase activity was quantified as the ratio between the amount of phosphor- and that of total PDGFRβ proteins.

Mouse liver microsome = test: Liver microsomal stability assay, mouse; type: in vitro ADME; set-up: key: A: the percentage of a compound remains is greater than that of its deuterium non-enriched counterpart; B: a result otherwise; conditions: 40 μM, 37° C., 30 min, 1 mg/ml microsome proteins; class relative to deuterium non-enriched counterpart
Description: (§2) A standard liver microsomal stability assay can be used to test or screen the compounds of this invention and to identify compounds with enhanced metabolic stability due to the enrichment of deuterium in the compounds. Liver microsome proteins prepared from different species such as mouse and rat were obtained from a commercial source (Research Institute for Liver Diseases, Shanghai, China). The assay was conducted in 1.5% potassium hydrogenphosphate (K2HPO4) in the presence of liver microsome proteins at 1 mg/ml and supplemented with an […] (3.3 mM NADPH, 3.3 mM glucose-6-phosphate, 6 units/ml G6PDase, and 3.3 mM magnesium chloride). Test compound was added into the assay mixture to a final concentration of 40 μM and incubated at 37° C. for 0 or 30 minutes. The reaction was stopped by the addition of 20 μM Bifonazole/CAN. Samples were then centrifuged at 14000 rpm for 10 minutes to precipitate proteins. Supernatant were then transferred to microcentrifuge tubes and subject to reverse phase HPLC analysis to determine the concentration of test compound.
(§3) The percentage of compounds that remained in the assay reactions after a thirty-minute incubation at 37° C. is calculated as the ratio between the amount of compound remained after a thirty-minute and that after a zero-minute incubation.

c-Met = biological target: T2, c-Met (Homo sapiens, UniProt P08581); test: c-Met cell-based assay (ELISA, phosphor-/total c-Met in transfected CHO cells, HGF stimulated); conditions: compound at 100 nM; CHO cells transfected with full length c-Met; HGF 100 ng/mL
T2 construct: expressed in transfected cells; host or cells: CHO cells
T2 sequence (P08581 25-1390): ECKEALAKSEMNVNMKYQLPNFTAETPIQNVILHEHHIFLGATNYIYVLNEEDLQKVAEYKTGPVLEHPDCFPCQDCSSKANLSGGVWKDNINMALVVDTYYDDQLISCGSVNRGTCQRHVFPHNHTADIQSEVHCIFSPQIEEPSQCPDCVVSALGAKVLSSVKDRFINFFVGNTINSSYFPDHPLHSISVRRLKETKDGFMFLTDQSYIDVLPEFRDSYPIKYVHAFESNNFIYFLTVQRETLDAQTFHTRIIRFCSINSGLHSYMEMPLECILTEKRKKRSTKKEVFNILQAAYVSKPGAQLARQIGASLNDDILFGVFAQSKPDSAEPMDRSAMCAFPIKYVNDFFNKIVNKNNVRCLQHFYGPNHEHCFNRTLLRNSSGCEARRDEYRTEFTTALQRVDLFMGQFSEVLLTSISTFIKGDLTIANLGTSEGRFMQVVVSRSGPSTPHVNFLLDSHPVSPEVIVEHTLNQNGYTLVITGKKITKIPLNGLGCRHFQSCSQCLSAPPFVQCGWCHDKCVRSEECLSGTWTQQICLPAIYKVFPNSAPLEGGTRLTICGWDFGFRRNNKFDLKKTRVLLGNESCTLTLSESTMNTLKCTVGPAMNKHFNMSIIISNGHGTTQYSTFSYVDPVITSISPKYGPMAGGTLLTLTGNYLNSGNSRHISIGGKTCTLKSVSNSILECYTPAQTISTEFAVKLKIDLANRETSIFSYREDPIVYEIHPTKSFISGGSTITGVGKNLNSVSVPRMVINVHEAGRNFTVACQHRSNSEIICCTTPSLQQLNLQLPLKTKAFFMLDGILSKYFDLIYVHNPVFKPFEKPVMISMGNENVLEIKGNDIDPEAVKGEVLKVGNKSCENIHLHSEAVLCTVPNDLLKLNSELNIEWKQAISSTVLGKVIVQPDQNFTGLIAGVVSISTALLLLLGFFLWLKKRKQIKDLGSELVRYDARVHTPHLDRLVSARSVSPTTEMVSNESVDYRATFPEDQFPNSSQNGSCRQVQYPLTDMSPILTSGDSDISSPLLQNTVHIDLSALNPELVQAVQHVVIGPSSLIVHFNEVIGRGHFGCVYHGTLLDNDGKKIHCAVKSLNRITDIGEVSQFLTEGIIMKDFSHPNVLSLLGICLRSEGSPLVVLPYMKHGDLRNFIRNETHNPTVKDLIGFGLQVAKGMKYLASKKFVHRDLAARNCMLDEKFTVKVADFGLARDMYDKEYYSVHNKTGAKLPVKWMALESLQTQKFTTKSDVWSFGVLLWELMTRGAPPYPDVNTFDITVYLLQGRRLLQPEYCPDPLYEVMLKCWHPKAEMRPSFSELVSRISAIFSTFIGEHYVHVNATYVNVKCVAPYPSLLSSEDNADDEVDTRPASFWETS
From the text: A standard cell-based assay for c-Met kinase activity can be used to test or screen the compounds of this invention and to identify c-Met antagonists. In this example, ELISA kits (R&D Systems, Inc., Minneapolis, Minn. 55413, USA) were used.
as §1, with “c-Met” for “PDGFRβ”, “it specific” for “various factors including”, “factor-Hepatocyte growth factor (HGF).” for “factors.”, “c-Met,” for “PDGFRβ,”
A compound to be tested was first dissolved in DMSO to a concentration of 10 mM and stored at −20° C. One day before the screening, CHO cells transfected with full length c-Met plasmid were grown in DMEM medium without the presence of serum. On the day of screening procedure, the compounds with various concentration in DMSO (from 0.5 nM to 500 nM) were added into DMEM medium, two hours later, Hepatocyte growth factor (HGF) was added into the medium at the concentration of 100 ng/mL to stimulate the production of phosphor-c-Met. Cell lysate from approximately 5×10^5 transfected CHO cells were reacted with anti-phosphor c-Met or anti-total c-Met antibody in 96 well plates, in the presence of detection antibody. The phosphor-c-Met or total c-Met were detected with Streptavidin-HRP (R&D Systems), followed by chemiluminescent detection. The level of c-Met kinase activity was quantified as the ratio between the amount of phosphor- and that of total c-Met proteins.

Rat liver microsome = test: Liver microsomal stability assay, rat; type: in vitro ADME; set-up: key: A: the percentage of a compound remains is greater than that of its deuterium non-enriched counterpart; B: a result otherwise; conditions: 40 μM, 37° C., 30 min, 1 mg/ml microsome proteins; class relative to deuterium non-enriched counterpart
Description: as §2, §3

| Compound | remaining activity at 0.1 µM (PDGFRβ) [%] | % of compound remained at the 30th minutes, Mouse liver microsome (Mouse liver microsome) | % of compound remained at the 30th minutes, Rat liver microsome (Rat liver microsome) | % C-Met kinase activity remains (c-Met) |
| --- | --- | --- | --- | --- |
| [2H]C([2H])(c1ccnc2[nH]ccc12)n1ccc2c(NC(=O)Nc3cccc(C)c3)cccc21 [Example 14, 1-[1-[dideuterio(1H-pyrrolo[2,3-b]pyridin-4-yl)methyl]indol-4-yl]-3-(m-tolyl)urea hydrochloride] | < 70 | A | A | A (the percentage of kinase activity remains is below 70%) |
| [2H]C(c1c[nH]c2ncccc12)N1CCc2c(NC(=O)Nc3cc(Cl)ccc3OC([2H])([2H])[2H])cccc21 (stereo not drawn) [Example 15, 1-[5-Chloro-2-(trideuteriomethoxy)phenyl]-3-[1-[deuterio(1H-pyrrolo[2,3-b]pyridin-3-yl)methyl]indolin-4-yl]urea] | ≥ 70 | B | A | A (the percentage of kinase activity remains is below 70%) |
| [2H]C(c1c[nH]c2ncccc12)n1ccc2c(NC(=O)Nc3cc(Cl)ccc3OC([2H])([2H])[2H])cccc21 (stereo not drawn) [Example 16, 1-[5-chloro-2-(trideuteriomethoxy)phenyl]-3-[1-[deuterio(1H-pyrrolo[2,3-b]pyridin-3-yl)methyl]indol-4-yl]urea] | ≥ 70 | A | A | A (the percentage of kinase activity remains is below 70%) |
| [2H]C(c1c[nH]c2ncccc12)N1CCc2c(NC(=O)Nc3cc(Cl)ccc3OC)cccc21 (stereo not drawn) [Example 17, 1-(5-Chloro-2-methoxyphenyl)-3-[1-[deuterio(1H-pyrrolo[2,3-b]pyridin-3-yl)methyl]indolin-4-yl]urea] | < 70 | A | A | A (the percentage of kinase activity remains is below 70%) |
| [2H]C(c1c[nH]c2ncccc12)n1ccc2c(NC(=O)Nc3cc(Cl)ccc3OC)cccc21 (stereo not drawn) [Example 18, 1-(5-chloro-2-methoxyphenyl)-3-[1-[deuterio(1H-pyrrolo[2,3-b]pyridin-3-yl)methyl]indol-4-yl]urea] | < 70 | A | A | A (the percentage of kinase activity remains is below 70%) |
| [2H]C(c1c[nH]c2ncccc12)N1CCc2c(NC(=O)Nc3cc(Cl)ccc3F)cccc21 (stereo not drawn) [Example 19, 1-(5-Chloro-2-fluorophenyl)-3-[1-[deuterio(1H-pyrrolo[2,3-b]pyridin-3-yl)methyl]indolin-4-yl]urea] | ≥ 70 | B | B | B (the percentage is greater or equal to 70%) |

Now from value to compound, other results behind:

| remaining activity at 0.1 µM (PDGFRβ) [%] | % of compound remained at the 30th minutes, Mouse liver microsome (Mouse liver microsome) | % of compound remained at the 30th minutes, Rat liver microsome (Rat liver microsome) | Compound | % C-Met kinase activity remains (c-Met) |
| --- | --- | --- | --- | --- |
| < 70 | B | A | [2H]C(c1c[nH]c2ncccc12)n1ccc2c(NC(=O)Nc3cc(Cl)ccc3F)cccc21 (stereo not drawn) [Example 20, 1-(5-chloro-2-fluorophenyl)-3-[1-[deuterio(1H-pyrrolo[2,3-b]pyridin-3-yl)methyl]indol-4-yl]urea] | A (the percentage of kinase activity remains is below 70%) |
| < 70 | A | A | [2H]C(c1c[nH]c2ncccc12)N1CCc2c(NC(=O)Nc3cccc(C)c3)cccc21 (stereo not drawn) [Example 21, 1-[1-[Deuterio(1H-pyrrolo[2,3-b]pyridin-3-yl)methyl]indolin-4-yl]-3-(m-tolyl)urea] | B (the percentage is greater or equal to 70%) |
| < 70 | A | B | [2H]C(c1c[nH]c2ncccc12)n1ccc2c(NC(=O)Nc3cccc(C)c3)cccc21 (stereo not drawn) [Example 22, 1-[1-[deuterio(1H-pyrrolo[2,3-b]pyridin-3-yl)methyl]indol-4-yl]-3-(m-tolyl)urea] | A (the percentage of kinase activity remains is below 70%) |
